Experimental data from article PMC5560554, “Targeting of CDK9 with indirubin 3’-monoxime safely and durably reduces HIV viremia in chronically infected humanized mice” (PLoS ONE, 2017).
“And” between values parts separate entries of the source, which are not always exact repeats. Equal entries are not always repeated.

Assays:
HIV [1] = system: HIV; set-up: method as in PMID 16284457; conditions: macrophages; read-out: EC50 for inhibition of HIV in vitro; cited from earlier work
macrophages = conditions: cited from earlier work
HIV [2] = system: HIV; set-up: method as in PMID 24401082; conditions: cited from earlier work
HIV BaL = assay: Antiviral activity of IM during chronic HIV infection in HSC-NSG mice; type: in vivo
Excerpt: NSG mice were humanized at the age of 2–3 days, following whole body irradiation ([…]) and hepatic injection of 1.2x10^5 human cord blood-derived CD34+ cells (Lonza, Walkersville, MD). At week 12, mice were checked for human cell reconstitution by double staining with FITC-conjugated antihuman CD45 antibody (BD Pharmingen) and APC-conjugated antimouse CD45 antibody (BD Pharmingen). Mice were considered successfully transplanted if they had ≥ 5% of human CD45+ cells in peripheral blood. Successfully transplanted mice were infected, via i.p. injection, with 15,000 TCID50 units of the CCR5-tropic HIV reference strain BaL.
Plasma HIV RNA levels were quantified by an in-house real-time RT PCR using HIV Gag primers SK38/SK39 and SYBR green dyes, as in our previous studies. The assay has a sensitivity of 150 copies HIV RNA/40μL plasma. Percentages of human CD4+ and CD8+ T cells were determined by flow cytometry analysis using fluorochrome labeled antibodies against human CD4 (clone SK3), CD8 (SK1), CD3 (clone SK7), and CD45 (clone 2D1) (BD Biosciences). Data were acquired in a BD FACSCalibur flow cytometer and analyzed using FLowJo software (v. 9.7.7). CD4/CD8 ratios were calculated and plotted using GraphPad Prism 5.0 software.
We next evaluated the antiviral activity of IM in HSC-NSG mice chronically infected with HIV. For this, 12-week old HSC-NSG mice were infected with HIV BaL. Five weeks after infection, animals initiated daily i.p. treatment with IM (5 and 20 mg/kg/day) or vehicle control for 15 weeks. Each experimental and control group had 5 mice. Viral replication was monitored by measuring HIV RNA in plasma by RT-PCR. Blood CD4/CD8 ratios were measured by Flow Cytometry. Mice treated with 5 mg/kg dose had modest, but significant, declines in plasma HIV RNA during the 15-week treatment period (Fig 2a). By the end of the study, plasma HIV RNA levels were 2.1 log10 units lower in mice treated with 5 mg/kg IM compared to controls. The CD4/CD8 ratios increased to similar levels in IM (5 mg/kg) and control groups for most of the study duration.
Fig 2 IM reduces HIV viremia in HSC-NSG chronically infected with HIV. Twelve-week old HSC-NSG mice were infected with HIV BaL. Five weeks after infection, treatment was initiated at IM doses of 0 (vehicle alone) and 5 mg/kg/day. Each group had 5 mice. Treatment was continued for 15 weeks. Blood samples collected at the indicated time points were evaluated for plasma HIV RNA levels by quantitative RT-PCR (A), and for CD4/CD8 ratios by Flow Cytometry Analysis (B). At each time point, data were tested for statistical significant differences by Mann-Whitney U tests (GraphPad Prism Software, La Jolla, CA); P < 0.05 was considered significant. Shaded boxes indicate duration of treatment.

[3] = HIV BaL, 20 mg/kg/day i.p., 5 weeks, limited data (S1 Fig)

O=C1Nc2ccccc2/C1=C1/Nc2ccccc2/C1=N\O [IM, Indirubin 3’-monoxime]
EC50 (HIV [1]): 500 nM
cytotoxicity (macrophages): not cytotoxic
inhibition of plasma HIV RNA levels (HIV [2]; 40 mg/kg, previous study): 2 log 10 units
general toxicity (HIV [2]; NSG mice, daily doses between 2.5 and 40 mg/kg): absence of general toxicity
human T cells in blood (HIV BaL; 20 mg/kg/day i.p., euthanized after 5 weeks of treatment): progressive losses in human T cells in blood
CD4/CD8 ratios by the end of the study vs control (HIV BaL; HIV BaL chronic infection, 5 mg/kg/day i.p. for 15 weeks): significantly higher
plasma HIV RNA levels lower compared to controls by the end of the study (HIV BaL; HIV BaL chronic infection, 5 mg/kg/day i.p. for 15 weeks, 5 mg/kg/day): 2.1 log10 units and ~ 2 log10 units
increases in CD4/CD8 ratios (HIV BaL; [3]): no consistent inhibition of plasma HIV RNA or increases in CD4/CD8 ratios
inhibition of plasma HIV RNA (HIV BaL; [3]): no consistent inhibition of plasma HIV RNA
